Data: patent US20080182805A1, “O-GlcNAcase-specific inhibitor and substrate engineered by the extension of the N-Acetyl moiety” (The Gov. of the U.S.A., as represented by the Secretary, …, priority 2007, published 2008)

Legend:
[1] = biological target: T1, O-GlcNAcase (Homo sapiens, UniProt O60502); assay: Inhibition of O-GlcNAcase measured with nonselective fluorogenic substrate (3); assay type: biochemical; conditions: fluorescence λex=485 nm, λem=535 nm
T1 construct: made in house
T1 sequence (O60502 1-916): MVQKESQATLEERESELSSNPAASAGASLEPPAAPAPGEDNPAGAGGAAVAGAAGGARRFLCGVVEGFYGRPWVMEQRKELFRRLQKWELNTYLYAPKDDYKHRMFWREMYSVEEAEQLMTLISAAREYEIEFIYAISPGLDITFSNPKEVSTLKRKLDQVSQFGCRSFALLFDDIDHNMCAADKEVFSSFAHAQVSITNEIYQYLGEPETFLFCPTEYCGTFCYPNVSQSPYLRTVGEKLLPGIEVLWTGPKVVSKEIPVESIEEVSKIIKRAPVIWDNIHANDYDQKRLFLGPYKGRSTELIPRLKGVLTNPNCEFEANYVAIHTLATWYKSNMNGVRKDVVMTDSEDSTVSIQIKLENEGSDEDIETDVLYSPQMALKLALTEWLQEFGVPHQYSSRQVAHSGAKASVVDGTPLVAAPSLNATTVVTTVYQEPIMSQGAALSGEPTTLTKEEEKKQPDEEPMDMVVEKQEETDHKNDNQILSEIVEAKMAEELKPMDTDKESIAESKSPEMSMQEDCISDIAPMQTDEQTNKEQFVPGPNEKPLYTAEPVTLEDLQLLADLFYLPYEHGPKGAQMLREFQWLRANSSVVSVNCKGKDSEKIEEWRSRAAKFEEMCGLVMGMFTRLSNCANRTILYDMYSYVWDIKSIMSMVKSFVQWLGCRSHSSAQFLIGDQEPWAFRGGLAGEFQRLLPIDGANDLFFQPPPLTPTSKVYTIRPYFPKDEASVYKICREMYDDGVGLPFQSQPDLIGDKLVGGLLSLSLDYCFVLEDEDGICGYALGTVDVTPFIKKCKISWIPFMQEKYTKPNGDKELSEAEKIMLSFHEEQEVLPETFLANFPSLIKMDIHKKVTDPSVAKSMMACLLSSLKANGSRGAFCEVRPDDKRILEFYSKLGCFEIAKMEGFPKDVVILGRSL
Description: (§1) The analysis of (2) was accomplished using previously reported methods.^9,11 For the determination of the inhibitory selectivity of both PUGNAc (1) and 2 at O-GlcNAcase, HEX A, and HEX B, the nonselective fluorogenic substrate (3) was utilized. The level of inhibition was determined based upon the quantification of fluorescence measured in the absence and presence of both PUGNAc (1) and (2) (intensity of fluorescence was measured at λex=485 nm at λem=535 nm). The results are compiled in FIG. 2. The analysis of (4) as a highly specific substrate for O-GlcNAcase activity was performed by the parallel treatment of O-GlcNAcase and HEX A with varying concentrations of (4) over a 45 min incubation period and the quantification of the resulting fluorescence. The results are compiled in FIG. 3.

[2] = biological target: T2, HEX A (Homo sapiens, UniProt P06865+P07686); assay: Inhibition of HEX A measured with nonselective fluorogenic substrate (3); assay type: biochemical; conditions: for inhibition of HEX A: fluorescence λex=485 nm, λem=535 nm
T2 sequence (P06865 89-529): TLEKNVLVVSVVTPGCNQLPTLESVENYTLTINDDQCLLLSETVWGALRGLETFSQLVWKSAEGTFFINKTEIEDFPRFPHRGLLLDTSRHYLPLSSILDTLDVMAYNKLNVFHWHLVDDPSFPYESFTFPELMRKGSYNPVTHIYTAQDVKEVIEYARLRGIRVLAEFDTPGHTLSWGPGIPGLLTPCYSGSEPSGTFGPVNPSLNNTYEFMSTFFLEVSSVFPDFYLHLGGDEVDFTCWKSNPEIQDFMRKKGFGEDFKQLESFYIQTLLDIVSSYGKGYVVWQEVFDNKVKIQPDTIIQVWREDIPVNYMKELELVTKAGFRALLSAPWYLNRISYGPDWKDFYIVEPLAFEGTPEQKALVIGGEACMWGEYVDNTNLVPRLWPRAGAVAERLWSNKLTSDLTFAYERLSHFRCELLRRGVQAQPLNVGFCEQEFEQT
T2 sequence (P07686 122-556): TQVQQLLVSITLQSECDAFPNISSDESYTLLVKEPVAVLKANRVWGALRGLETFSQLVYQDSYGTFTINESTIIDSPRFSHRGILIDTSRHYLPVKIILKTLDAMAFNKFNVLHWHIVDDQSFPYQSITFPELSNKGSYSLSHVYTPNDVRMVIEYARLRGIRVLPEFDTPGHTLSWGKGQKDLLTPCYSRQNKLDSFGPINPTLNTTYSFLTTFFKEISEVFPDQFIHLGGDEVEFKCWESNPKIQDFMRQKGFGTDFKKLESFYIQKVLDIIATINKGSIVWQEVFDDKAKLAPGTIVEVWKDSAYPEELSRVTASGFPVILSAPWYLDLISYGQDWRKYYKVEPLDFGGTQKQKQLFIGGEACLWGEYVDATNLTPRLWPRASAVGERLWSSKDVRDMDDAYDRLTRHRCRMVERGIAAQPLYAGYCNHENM
Description: as §1

[3] = biological target: T3, HEX B (Homo sapiens, UniProt P07686); assay: Inhibition of HEX B measured with nonselective fluorogenic substrate (3); assay type: biochemical; conditions: fluorescence λex=485 nm, λem=535 nm
T3 sequence (P07686 122-556): T2 sequence (P07686 122-556)
Description: as §1

[4] = test system: fat cells; conditions: cited from earlier work

Row | inhibition of HEX A [2] | inhibition of HEX B [3] | concentration up to which selectivity (no inhibition) was verified against HEX A [2] [µM] | SMILES | inhibition of O-GlcNAcase [1] | effect on insulin resistance in fat cells [4]
1 | potently inhibit | potently inhibit |  | CC(=O)N[C@H]1/C(=N/OC(=O)Nc2ccccc2)O[C@H](CO)[C@@H](O)[C@@H]1O [PUGNAc, O-(2-acet-amido-2-deoxy-D-glucopyranosylidene)amino-N-phenylcarbamate] | potently inhibit | induces insulin resistance
2 | total loss of inhibitory activity | total loss of inhibitory activity | > 30 | CCCCC(=O)N[C@H]1/C(=N/OC(=O)Nc2ccccc2)O[C@H](CO)[C@@H](O)[C@@H]1O [compound 2] | slightly decreases the inhibitory potency | 
